Earlier results in US20030082231A1, “Coating for orally administered compositions” (priority 2001, published 2003).

Tested on: sister chromatid exchanges (SCE) damage induced by benzo(a)pyrene

## chlorophyllin
SCE damage induced by benzo(a)pyrene, in vivo
  genotoxic inhibition (frequency of sister chromatid exchanges): about 80%
Chlorophyllin plus benzo(a)pyrene
  cell proliferation kinetics (CPK): inhibition of the cell proliferation kinetics
